This assay deals with 192522-019-R-J2-PDC complex tumor spheroid viability. The experiment in a line: Anticancer human tumor 192522-019-R-J2-PDC patient-derived colon adenocarcinoma cell line growth inhibition [POLQ]. To be noted: for viability, T/C: stronger effect = lower value. As for the experimental part: Multicellular complex tumor spheroid response to Polymerase (POL) inhibitors (novobiocin, ART-558, RP6685) in combination with a variety of drugs and investigational agents in selected tumor cell lines
The POL inhibitors (novobiocin, ART-558, and RP6685) were evaluated both individually and in combination with standard of care and investigational anticancer small molecules within a complex spheroid model of solid tumors. . Complex spheroids include a stromal component modeled by human endothelial cells (HUVEC) and fibroblasts modeled by human mesenchymal stem cells (MSCs). The concentration ranges selected for each drug and investigational agent were based upon clinically achievable concentrations if the clinical Cmax of the agent was known.
Compounds. The drugs and investigational agents: novobiocin (NSC847541), ART-558 (NSC835418), RP-6685 (NSC848927), peposertib (NSC802822), ceralasertib (NSC780249), elimusertib (NSC800525), camonsertib (NSC841442), AZD-1390 (NSC803789), olaparib (NSC753686), talazoparib (NSC767125), rucaparib (NSC756644), sotorasib (NSC818433), MRTX-1133 (NSC836407), SN-38 (NSC673596), topotecan (NSC609699), epotoside (NSC141540), doxorubicin (NSC123127), gemcitabine (NSC613327), 5-fluorouracil (NSC19893), paclitaxel (NSC125973), vemurafenib (NSC761431), MSA-2 (NSC828583), SN-011 (NSC837082), adavosertib (NSC754352), prexasertib (NSC758257), carboplatin (NSC241240) and oxaliplatin (NSC266046), were obtained from the National Cancer Institute (NCI) Developmental Therapeutics Program Chemical Repository (21). The FDA-approved anticancer drug set is available from the Developmental Therapeutics Program at https://dtp.cancer.gov/organization/dscb/obtaining/. […] The stock solutions were prepared in dimethyl sulfoxide (DMSO, Sigma-Aldrich, St. Louis, MO, cat. D2650), except for the platinum compounds which were prepared in saline (Quality Biological, Gaithersburg, MD, cat. 114-055-101), at 800-fold the tested concentration and stored at -70 degrees C prior to their use. All drugs and investigational agents were tested over a range starting from a high concentration at or near the clinical Cmax and decreasing in half-log increments. If the clinical Cmax for an agent had not been determined, the highest concentration tested was 10 microM, except for SN-38, which was tested at a high concentration of 1 microM.
Cell Culture. All cells were maintained in an incubator at 37 degrees C and 5% CO2 with 95% humidity. The PDC lines were cultured according to standard operating procedures established by the NCI PDMR (https://pdmr.cancer.gov). Table 3 of the manuscript, lists the cell lines along with the number of the three cell types plated to form the mct-spheroids and media for tumor cell growth. After thawing, all PDC lines, except 997537-175-T-J1-PDC and 415267-285-R-J2-PDC, were cultured in Matrigel-coated flasks prepared with a working solution of 1X Ham's F-12 nutrient mix, without supplementation (Thermo Fisher Scientific, cat. 11765054), 100 U/mL penicillin-streptomycin (Thermo Fisher Scientific, cat. 15140122), and 2.5% Matrigel (Corning Inc., Corning, NY, cat. 354248) for the first three passages. The two PDC lines 997537-175-T-J1-PDC and 415267-285-R-J2-PDC were cultured on uncoated flasks. The 857933-349-R-J2-PDC line was cultured in 6C/Colon 1B media containing advanced DMEM/F-12 (Thermo Fisher Scientific, cat. 12634028), 10 mM HEPES (Thermo Fisher Scientific, cat. 15630080), 1X GlutaMAX supplement (Thermo Fisher Scientific, cat. 35050061), 0.1 mg/mL primocin (InvivoGen, San Diego, CA, cat. ant-pm-2), 10% defined fetal bovine serum, heat inactivated (HyClone Laboratories Inc., Logan, UT, cat. SH30070.03HI), 50% L-WRN conditioned media (ATCC, cat. CRL-3276), 1.25 mM N-Acetyl-L-cysteine (Sigma-Aldrich, cat. A9165), 10 mM nicotinamide (Sigma-Aldrich, cat. N0636), 1X B-27 supplement (Thermo Fisher Scientific, cat. 17504044), 1X N-2 supplement (Thermo Fisher Scientific, cat. […]

Where [1] appears, read: curve of first compound, second compound 0.0316 µM.
Setting [2] is: curve of first compound, second compound 0.1 µM.
Where [3] appears, read: curve of first compound, second compound 0.316 µM.
Setting [4] is: curve of first compound, second compound 1 µM.
Where [5] appears, read: curve of first compound, second compound 3.16 µM.
Where [6] appears, read: curve of first compound, second compound 10 µM.
[7] abbreviates: second compound 0.0316 µM, first compound 0.00316 µM.
Where [8] appears, read: second compound 0.0316 µM, first compound 0.01 µM.
Where [9] appears, read: second compound 0.0316 µM, first compound 0.0316 µM.
The mark [10] stands for this setting: second compound 0.0316 µM, first compound 0.1 µM.
Where [11] appears, read: second compound 0.1 µM, first compound 0.00316 µM.
Setting [12] is: second compound 0.1 µM, first compound 0.01 µM.
Setting [13] is: second compound 0.1 µM, first compound 0.0316 µM.
[14] abbreviates: second compound 0.1 µM, first compound 0.1 µM.
[15] abbreviates: second compound 0.316 µM, first compound 0.00316 µM.
Setting [16] is: second compound 0.316 µM, first compound 0.01 µM.
Setting [17] is: second compound 0.316 µM, first compound 0.0316 µM.
[18] abbreviates: second compound 0.316 µM, first compound 0.1 µM.
The mark [19] stands for this setting: second compound 1 µM, first compound 0.00316 µM.
Where [20] appears, read: second compound 1 µM, first compound 0.01 µM.
[21] abbreviates: second compound 1 µM, first compound 0.0316 µM.
The mark [22] stands for this setting: second compound 1 µM, first compound 0.1 µM.
Setting [23] is: second compound 3.16 µM, first compound 0.00316 µM.
The mark [24] stands for this setting: second compound 3.16 µM, first compound 0.01 µM.
Setting [25] is: second compound 3.16 µM, first compound 0.0316 µM.
Where [26] appears, read: second compound 3.16 µM, first compound 0.1 µM.
Where [27] appears, read: second compound 10 µM, first compound 0.00316 µM.
Where [28] appears, read: second compound 10 µM, first compound 0.01 µM.
Setting [29] is: second compound 10 µM, first compound 0.0316 µM.
Setting [30] is: second compound 10 µM, first compound 0.1 µM.

Several values for one entry are separate records, joined by “and”; a condition that tells them apart may be missing. Identical values can stand only once. A value given as a limit tells only on which side of the number the result lay.
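Further: spheroids exposed to drugs for seven days before reading.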
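Wherever viability, T/C is given: 100% = DMSO vehicle control viability in luminescence.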

The term viability, T/C denotes the ratio of treated to control. The term IC50 denotes the concentration that gives 50% inhibition. As to `C#Cc1c(F)ccc2cc(O)cc(-c3ncc4c(N5CC6CCC(C5)N6)nc(OCC56CCCN5CC(F)C6)nc4c3F)c12` (configuration not stated), the viability, T/C was 102% and 98.2% and 109% (compound 0.0316 µM); 93.6% and 81.8% and 87.3% (compound 0.1 µM); 73.3% and 77.1% and 80.5% (compound 0.316 µM); 78.4% and 77.9% and 83.4% (compound 1 µM); 78.9% and 73.7% and 70.6% (compound 3.16 µM); 67.8% and 64.1% and 64.3% (compound 10 µM). Moreover, the IC50 (curve of compound) was > 10000 nM.
With `COc1cccc2c1C(=O)c1c(O)c3c(c(O)c1C2=O)CC(O)(C(=O)CO)CC3OC1CC(N)C(O)C(C)O1` (configuration not stated), the viability, T/C is 103% and 101% and 100% (compound 0.0316 µM); 82.1% and 80.8% and 80.6% (compound 0.1 µM); 72% and 89.1% and 66.9% (compound 0.316 µM); 89.1% and 74.3% and 83.1% (compound 1 µM); 69.1% and 72.3% and 65.9% (compound 3.16 µM); 59.9% and 62.4% and 48.1% (compound 10 µM). Further, the IC50 (curve of compound) is > 10000 nM.
As to `Nc1ccc(C#CCN(C(=O)Cc2ncc(C(F)(F)F)cc2C(F)(F)F)c2ccc(F)cc2)nn1`, the viability, T/C (compound 0.0316 µM) was 104% [middle of 13 runs]; the viability, T/C (compound 0.1 µM) was 106% [middle of 13 runs]; the viability, T/C (compound 0.316 µM) is 106% [middle of 13 runs]; the viability, T/C (compound 1 µM) was 105% [middle of 13 runs]; the viability, T/C (compound 3.16 µM) is 105% [middle of 13 runs]; the viability, T/C (compound 10 µM) was 107% [middle of 13 runs]. In addition, under “compound alone, run of 11/06/2023”, the IC50 was > 10000 nM.
Turning to `CCCS(=O)(=O)Nc1ccc(F)c(C(=O)c2c[nH]c3ncc(-c4ccc(Cl)cc4)cc23)c1F`, the viability, T/C (compound 0.0316 µM) is 96.5% and 100% and 106%; the viability, T/C (compound 0.1 µM) was 108% and 104% and 96.8%; the viability, T/C (compound 0.316 µM) is 105% and 96.5% and 104%; the viability, T/C (compound 1 µM) was 106% and 108% and 97.6%; the viability, T/C (compound 3.16 µM) was 116% and 106% and 120%; the viability, T/C (compound 10 µM) is 74% and 82% and 94.8%. For the same molecule, the IC50 (curve of compound) was > 10000 nM.
For `Cn1ncnc1[C@H]1c2n[nH]c(=O)c3cc(F)cc(c23)N[C@@H]1c1ccc(F)cc1` + Nc1ccc(C#CCN(C(=O)Cc2ncc(C(F)(F)F)cc2C(F)(F)F)c2ccc(F)cc2)nn1, the IC50 reads like this: under setting [1], > 100 nM; under setting [2], > 100 nM; under setting [3], > 100 nM; under setting [4], > 100 nM; under setting [5], > 100 nM; under setting [6], > 100 nM. The viability, T/C by setting is: (second compound 0.0316 µM, first compound 0.000316 µM) 101%; (second compound 0.0316 µM, first compound 0.001 µM) 108%; under setting [7], 101%; under setting [8], 104%; under setting [9], 99.4%; under setting [10], 98.9%. The viability, T/C is, setting by setting: (second compound 0.1 µM, first compound 0.000316 µM) 108%; (second compound 0.1 µM, first compound 0.001 µM) 100%; under setting [11], 107%; under setting [12], 110%; under setting [13], 113%; under setting [14], 91.4%. For the same molecule, the viability, T/C is, setting by setting: (second compound 0.316 µM, first compound 0.000316 µM) 107%; (second compound 0.316 µM, first compound 0.001 µM) 95.4%; under setting [15], 97.9%; under setting [16], 108%; under setting [17], 111%; under setting [18], 102%. In addition, the viability, T/C was 119% (second compound 1 µM, first compound 0.000316 µM); 109% (second compound 1 µM, first compound 0.001 µM); 102% under setting [19]; 99.9% under setting [20]; 105% under setting [21]; 114% under setting [22]. The viability, T/C by setting is: (second compound 3.16 µM, first compound 0.000316 µM) 102%; (second compound 3.16 µM, first compound 0.001 µM) 107%; under setting [23], 109%; under setting [24], 106%; under setting [25], 105%; under setting [26], 104%. In addition, the viability, T/C turned out to be 108% (second compound 10 µM, first compound 0.000316 µM); 114% (second compound 10 µM, first compound 0.001 µM); 109% under setting [27]; 99.2% under setting [28]; 99.2% under setting [29]; 107% under setting [30].
Turning to `CCc1c2c(nc3ccc(O)cc13)-c1cc3c(c(=O)n1C2)COC(=O)[C@]3(O)CC` + Nc1ccc(C#CCN(C(=O)Cc2ncc(C(F)(F)F)cc2C(F)(F)F)c2ccc(F)cc2)nn1, the IC50 under setting [1] came to 232 nM; the IC50 under setting [2] was 176 nM; the IC50 under setting [3] amounted to 204 nM; the IC50 under setting [4] worked out at 129 nM; the concentration for half-maximal inhibition (IC50) under setting [5] came out at 160 nM; the IC50 under setting [6] stood at 111 nM. For the same molecule, the viability, T/C runs as follows: under setting [7], 92.1%; under setting [8], 75.4%; under setting [9], 70.3%; under setting [10], 62.1%; (second compound 0.0316 µM, first compound 0.316 µM) 44.2%; (second compound 0.0316 µM, first compound 1 µM) 35.7%. In addition, the viability, T/C by setting is: under setting [11], 94.8%; under setting [12], 77.6%; under setting [13], 78.6%; under setting [14], 60%; (second compound 0.1 µM, first compound 0.316 µM) 38.1%; (second compound 0.1 µM, first compound 1 µM) 31%. In addition, the viability, T/C turned out to be 99% under setting [15]; 76.2% under setting [16]; 78.8% under setting [17]; 57% under setting [18]; 43.5% (second compound 0.316 µM, first compound 0.316 µM); 31.9% (second compound 0.316 µM, first compound 1 µM). The viability, T/C under setting [19] came out at 103%; the viability, T/C under setting [20] was found to be 71.5%; the viability, T/C under setting [21] worked out at 69.8%; the viability, T/C under setting [22] came out at 57.6%; the viability, T/C (second compound 1 µM, first compound 0.316 µM) amounted to 36.4%; the viability, T/C (second compound 1 µM, first compound 1 µM) was found to be 31%. In addition, the viability, T/C under setting [23] turned out to be 96.9%; the viability, T/C under setting [24] came to 79.8%; the viability, T/C under setting [25] is 72.5%; the viability, T/C under setting [26] is 56%; the viability, T/C (second compound 3.16 µM, first compound 0.316 µM) worked out at 39.4%; the viability, T/C (second compound 3.16 µM, first compound 1 µM) turned out to be 36.5%. In addition, the viability, T/C is 94% under setting [27]; 76.7% under setting [28]; 71.5% under setting [29]; 50.6% under setting [30]; 36.2% (second compound 10 µM, first compound 0.316 µM); 34.4% (second compound 10 µM, first compound 1 µM).
